Data: patent US4551547A, “Biocidal 2-aryl-1, 3-cyclopentanedione enol ester compounds” (Union Carbide Corporation, priority 1983, dated 1985)
≈ marks a conversion by molar mass, not a printed value.

How the values were obtained:
Cotton = experiment: Post-emergent herbicidal test, cotton; assay type: in vivo; parameters: key: 1: no perceptible injury; 2: intermediate degrees of injury; 3: intermediate degrees of injury; 4: intermediate degrees of injury; 5: the plant was dead; details: 2500 parts per million, after ten days; for Post-emergent Herbicidal, Cotton: Table II; for Post Emergent Herbicidal, Cotton: Table III
Protocol: (§1) Suspensions of the test compounds were prepared by dissolving one gram of compound in 50 milliliters of acetone in which had been dissolved 0.1 gram (10 percent of the weight of compound) of an alkylphenoxyethanol sufactant, as an emulsifying or dispersing agent. The resulting solution was mixed into 160 milliliters of water to give roughly 200 milliliters of a suspension containing the compound in finely divided form. The thus prepared stock suspension contained 0.5 percent by weight of compound. The test concentrations employed in the tests described below were obtained by diluting the stock suspension with water. The test procedures were as follows:
Experiments were also conducted to determine the phytotoxicity of representative compositions with respect to healthy fresh plants. Solutions of the compounds were prepared as described above to provide a concentration of 2500 parts per million of the test compound. The test plants were sprayed in accordance with the procedure described above for the Mite Foliage Spray Test so as to deliver approximately 100 milliliters of test solutions to the leaves of each plant tested. The sprayed plants and controls were set aside for approximately one hour to allow the solutions to dry and were then placed in the greenhouse. After ten days the plants were visually inspected to determine the extent of foliage injury. A rating of 1 indicates no perceptible injury; 5 indicates the plant was dead and ratings of 2, 3 and 4 indicate intermediate degrees of injury based upon the number and extent to which leaves were injured.

[1] = tested on: two-spotted mite (adults and nymphal stages); experiment: Mite Foliage Spray Test (adults and nymphs); assay type: in vivo, Tetranychus urticae (Koch); parameters: key to Miticidal, Adult: A: Excellent Control; B: Partial Control; No Control; details: for Miticidal, Adult: Table II, mortality count after four days; for LC50: Tetranychus urticae, foliar, Table III, ppm required for a 50 percent kill of mites, read-out: Miticidal LD50, Adult
Protocol: Suspensions of the test compounds were prepared by dissolving one gram of compound in 50 milliliters of acetone in which had been dissolved 0.1 gram (10 percent of the weight of compound) of an alkylphenoxyethanol sufactant, as an emulsifying or dispersing agent. The resulting solution was mixed into 160 milliliters of water to give roughly 200 milliliters of a suspension containing the compound in finely divided form. The thus prepared stock suspension contained 0.5 percent by weight of compound. The test concentrations employed in the tests described below were obtained by diluting the stock suspension with water. The test procedures were as follows: Adults and nymphal stages of the two-spotted mite (Tetranychus urticae (Koch)), reared on Tender-green beam plants at 80±5° F. and 50±5 percent relative humidity, were the tests organisms. Infested leaves from a stock culture were placed of the primary leaves of two bean plants six to eight inches in height, growing in a two-and-a-half inch clay pot. 150-200 Mites, a sufficient number for testing, transferred from the excised leaves to the fresh plants in a period of twenty-four hours. Following the twenty-four hour transfer period, the excised leaves were removed from the infested plants. The test compounds were formulated by diluting the stock suspension with water to provide suspensions containing the desired amount of test compound per million parts of final formulation. The potted plants (one pot per compound) were placed on a revolving turntable and sprayed with 100-110 milliliters of tests compound formulation by use of a DeVilbis spray gun set at 40 psi, air pressure. This application, which lasted 30 seconds, was sufficient to wet the plants to run-off. As a control, 100-110 milliliters of a water solution containing acetone and emulsifier in the same concentrations as the test compound formulation, but containing no test compound, were also sprayed on infested plants. The sprayed plants were held at 80±5° F. and 50±5 percent relative humidity for four days, after which, a mortality count of motile forms was made on the leaves of the test plants. Any individual which was capable of locomotion upon prodding was considered living. In these tests the pesticidal activity of the compounds against mites and mite eggs was rated as follows: Tests were conducted in accordance with the procedures given at pages 17 to 21 supra. The results are expressed in the same manner as used in Table II, except with respect to miticidal activity. For mite adult and mite egg comparison purposes, results are given in parts per million (ppm) required for a 50 percent kill of mites or eggs, respectively.

Perennial rye grass = experiment: Preliminary herbicide seed germination test (pre-emergent), perennial rye grass; assay type: in vivo, Solium perenne; parameters: key: 5: no seedling emerged; 4: few seedlings emerged and/or very severe stunting; 3: moderate reduction in stand and/or moderate stunting.; 2: very slight reduction in stand and/or slight stunting; 1: no injury, seedlings appear no different with respect to stand or growth than untreated controls; details: ten to twelve days after application
Protocol: as §1
The following seeds were used in this test:
Perennial rye grass--Solium perenne
Two […] mixtures were prepared as follows:
Each of the above mixtures was rolled separately in 5 gallon containers for approximately one-half hour on ball mill to insure uniform mixing of seeds and soil. For each compound four 3-inch pots were filled with soil to within 11/2 inches of top of pots. To two of these pots were added 70 cc. of Mixture I. To the remaining 2 pots were added 70 cc. of Mixture II. The seed-soil mixture was tamped firmly, and the pots were removed to the greenhouse and watered lightly. About 2 hours after planting, 25 milliliters of the test formulation were added to one pot containing Mixture I and one pot containing Mixture II. An equal volume of a water solution containing acetone and an emulsifier in the same concentration as the herbicidal mixture but without the candidate herbicide was also added to each of the soil-seed mixtures. These pots are used as check or control units. The test compounds were formulated by diluting the stock suspension with water to obtain the desired concentration of the compound in parts per million of the final formulation. Each compound was tested at the same concentration. […] Ratings were made according to the following designations: […]

Structure (SMILES) | Post-emergent Herbicidal, Cotton (Cotton) | Miticidal, Adult [1] | Pre-emergent Herbicidal, Rye (Perennial rye grass; Table II) | Post Emergent Herbicidal, Cotton (Cotton) | LC50 [1] [µg/mL] | Pre-emergent Herbicidal, Rye (Perennial rye grass; Table III)
Cc1ccc(C)c(C2=C(OC(=O)C(C)C)CC(C)C2=O)c1 (stereo not drawn) [Compound 16] | 3 | B | 3 | – | – | –
CCCCC(CC)C(=O)OC1=C(c2ccccc2C)C(=O)C2CCCCC12 (stereo not drawn) [drawing 22] | – | – | – | 2 | 7 (≈ 19 µM) | 3
Cc1ccc(C)c(C2=C(OC(=O)C(C)C)C3CCCCC3C2=O)c1 (stereo not drawn) [Compound 29] | 2 | A | 1 | – | – | –
Cc1ccc(C)c(C2=C(OC(=O)C(C)C)CCC2=O)c1 [Compound 12] | 3 | B | 1 | – | – | –
CCCCC(CC)C(=O)OC1=C(c2ccccc2Cl)C(=O)CC1 (stereo not drawn) [Compound 1] | 3 | A | 5 | – | – | –
CCCCCCCCCC(=O)OC1=C(c2ccccc2C)C(=O)c2ccccc21 [reference compound] | – | – | – | 1 | 500 (≈ 1280 µM) | 1
Cc1ccc(C2=C(OC(=O)c3ccccc3)CCC2=O)c(C)c1 [Compound 10] | 1 | C | 3 | – | – | –
CCCCCCCCCCCCCCCC(=O)OC1=C(c2ccccc2C)C(=O)CC1 [Compound 8] | 2 | A | 2 | – | – | –
Cc1ccc(C)c(C2=C(OC(=O)C(C)(C)C)C3CCCCC3C2=O)c1 (stereo not drawn) [Compound 31] | 1 | A | 1 | – | – | –
Cc1ccccc1C1=C(OC(=O)C(C)(C)C)c2ccccc2C1=O [reference compound] | – | – | – | 1 | 100 (≈ 312 µM) | 2
CC(=O)OC1=C(c2cc(C)ccc2C)C(=O)CC1 [Compound 11] | 2 | A | 4 | – | – | –
CC(=O)OC1=C(c2cc(C)ccc2C)C(=O)C(C)C1 (stereo not drawn) [Compound 15] | 2 | A | 4 | – | – | –
CCCCCCCCCCCCCCCC(=O)OC1=C(c2ccccc2C)C(=O)C2CCCCC12 (stereo not drawn) [drawing 17] | – | – | – | 2 | 20 (≈ 41.6 µM) | 4
